Data from the NIST ThermoML archive (doi:10.1021/je700119m).
± gives the expanded uncertainty stated by the source.

Experiments:
[1] = 298.15 K, 101.33 kPa, Liquid
[2] = refractive index (Na D-line) (dimensionless); conditions: 298.15 K; 101.33 kPa; Liquid; Standard Abbe refractometry

Row | mass density [1] | refractive index [2] | mass density ([1]; Vibrating tube method) | Structure (SMILES)
1 | 1327.2 ± 2.7 kg/m3 | 1.4827 ± 0.00078 | – | COS(=O)(=O)[O-].Cn1cc[n+](C)c1 [1,3-dimethylimidazolium methylsulfate]
2 | 1367.3 ± 2.9 kg/m3 | 1.40937 ± 0.00078 | – | CCCCn1cc[n+](C)c1.F[P-](F)(F)(F)(F)F [1-butyl-3-methylimidazolium hexafluorophosphate]
3 | 785.1 ± 0.5 kg/m3 | 1.35929 ± 0.00068 | – | CCO [ethanol]
4 | – | 1.37496 ± 0.00068 | 781 ± 0.4 kg/m3 | CC(C)O [propan-2-ol]

Row | Structure (SMILES) | mass density [1] | refractive index [2] | mass density ([1]; Vibrating tube method)
5 | CCC(C)=O [butanone] | 799.7 ± 0.6 kg/m3 | 1.37618 ± 0.00068 | –
